*1 amine or outer side, *2 acyl side, *3 side chain or, on linkers, in order; H or OH if unused. Where a SMILES comes first, the peptide text is derived from it. Bridges are numbered along the chain shown (N, C = ends). [ ]: non-standard residue; d: D form. The star is where a group is joined. ξ: configuration not given here. GABA(4S-Me) = C[C@@H](CCC(=O)[*:2])N[*:1]; Octanoyl(3-OH) = CCCCCC(O)CC(=O)*; NMeGABA = CN(CCCC(=O)[*:2])[*:1]; X8 = O=C([C@H]1CC[C@H](O)CC1)*; Thr(3ξ) = CC(O)[C@H](N)C(=O)O; X10 = O=C(CC[C@@H]1CCCN1)*; ξAoc(2) = CCCCCCC(N)C(=O)O; NH(2-ClPh) = Clc1ccccc1N*; Octanoyl = CCCCCCCC(=O)*; Dab = NCC[C@H](N)C(=O)O; X12 = O=C(CCCN1CCOCC1)*; X11 = CC(C)(N)CCC(=O)*; X7 = NC1CCC(C(=O)*)CC1; X1 = CCCCCCC(O)C(=O)*; CO = O=C([*:1])[*:2]; Glycolyl = O=C(CO)*; GABA = NCCCC(=O)O; X9 = O=C(CCCCCO)*
Key:
Assay in all cases: MIC susceptibility testing, broth microdilution in CaMHB
[1] = system: K. pneumoniae ATCC 4352; assay type: cell-based, Klebsiella pneumoniae; details: K. pneumoniae ATCC4352; Table 4A, different batches of cation-adjusted Muller-Hinton broth
Description: (§1) To evaluate the potency and spectrum of the compounds, susceptibility testing was performed against four strains of each of the four Gram negative pathogens, Escherichia coli, Pseudomonas aeruginosa, Klebsiella pneumoniae and Acinetobacter baumannii.
(§2) The day before testing, 3 to 4 colonies were picked from fresh Mueller-Hinton Agar (MHA) plate and transferred into 10 mL of Cation adjusted MHB (CaMHB). Cultures were incubated at 37° C. 250 rpm for 18-20 hours before being diluted 100-fold in fresh CaMHB. The subcultures were grown further until the OD600 reached 0.2-0.3 corresponding to […]. The actively growing cultures were diluted 100-fold in fresh medium and used for the inoculum.
(§3) The assays were performed in duplicate.
(§4) Data was obtained under similar conditions to Table 4 except that different batches of cation-adjusted Muller-Hinton broth were used. The MIC values for these compounds are compared with those values obtained for Polymyxin B, Colistin Sulphate, CB-182,804 and NAB739 (as the TFA salt). CB-182,804 is a polymyxin decapeptide derivative with an aryl urea substituent at the N-terminus, which has been claimed to have lower toxicity than Polymyxin B (compound 5 in WO 2010/075416. See page 37). NAB739 has been described previously by Vaara et al.

[2] = system: A. baumannii ATCC19606; assay type: cell-based, Acinetobacter baumannii; details: Table 4A, different batches of cation-adjusted Muller-Hinton broth
Description: as §1, §2, §3, §4

[3] = system: E. coli ATCC25922; assay type: cell-based, Escherichia coli; details: Table 4A, different batches of cation-adjusted Muller-Hinton broth
Description: as §1, §2, §3, §4

[4] = system: P. aeruginosa ATCC27853; assay type: cell-based, Pseudomonas aeruginosa; details: Table 4A, different batches of cation-adjusted Muller-Hinton broth
Description: as §1, §2, §3, §4

| Structure (SMILES) | MIC [1] [micrograms/mL] | MIC [2] [micrograms/mL] | MIC [3] [micrograms/mL] | MIC [4] [micrograms/mL] |
| --- | --- | --- | --- | --- |
| CC(C)C[C@@H]1NC(=O)[C@@H](Cc2ccccc2)NC(=O)[C@H](CCN)NC(=O)[C@@H](NC(=O)[C@H](CCN)NC(=O)[C@@H](NC(=O)C2CCC(N)CC2)C(C)O)CCNC(=O)[C@H](C(C)O)NC(=O)[C@H](CCN)NC(=O)[C@H](CCN)NC1=O (stereo partly drawn) [Example 27, cis-4-aminocyclohexane carbonyl polymyxin B nonapeptide] (X7-[Thr(3ξ)][Dab][Dab][Dab][dF]L[Dab][Dab][Thr(3ξ)]; lactam 3-C) | 0.125 | 0.5 | 2 | 0.125 |
| CC(C)C[C@@H]1NC(=O)[C@@H](Cc2ccccc2)NC(=O)[C@H](CCN)NC(=O)[C@@H](NC(=O)[C@H](CCN)NC(=O)[C@@H](NC(=O)CCCN2CCOCC2)C(C)O)CCNC(=O)[C@H](C(C)O)NC(=O)[C@H](CCN)NC(=O)[C@H](CCN)NC1=O (stereo partly shown) [Example 20, 4-Morpholinylbutanoyl polymyxin B nonapeptide] (X12-[Thr(3ξ)][Dab][Dab][Dab][dF]L[Dab][Dab][Thr(3ξ)]; lactam 3-C) | >32 | >32 | 4 | 1 |
| CNCCCC(=O)N[C@H](C(=O)N[C@@H](CCN)C(=O)N[C@H]1CCNC(=O)[C@H](C(C)O)NC(=O)[C@H](CCN)NC(=O)[C@H](CCN)NC(=O)[C@H](CC(C)C)NC(=O)[C@@H](Cc2ccccc2)NC(=O)[C@H](CCN)NC1=O)C(C)O (stereo partly shown) [Example 23, 4-(N-methylamino)-butanoyl polymyxin B nonapeptide] (NMeGABA-[Thr(3ξ)][Dab][Dab][Dab][dF]L[Dab][Dab][Thr(3ξ)]; lactam 3-C) | 0.5 | 8 | 0.5 | 0.25 |
| CC(C)C[C@@H]1NC(=O)[C@@H](Cc2ccccc2)NC(=O)[C@H](CCN)NC(=O)[C@@H](NC(=O)[C@H](CCN)NC(=O)[C@@H](NC(=O)CCCCCO)C(C)O)CCNC(=O)[C@H](C(C)O)NC(=O)[C@H](CCN)NC(=O)[C@H](CCN)NC1=O (stereo partly shown) [Example 21, 6-Hydroxyhexanoyl polymyxin B nonapeptide] (X9-[Thr(3ξ)][Dab][Dab][Dab][dF]L[Dab][Dab][Thr(3ξ)]; lactam 3-C) | 32 | >32 | 32 | 1 |
| CCCCCCC(O)C(=O)N[C@H](C(=O)N[C@@H](CCN)C(=O)N[C@H]1CCNC(=O)[C@H](C(C)O)NC(=O)[C@H](CCN)NC(=O)[C@H](CCN)NC(=O)[C@H](CC(C)C)NC(=O)[C@@H](CC(C)C)NC(=O)[C@H](CCN)NC1=O)C(C)O (stereo partly drawn) [Example 26, 2-(R,S)-2-Hydroxyoctanoyl polymyxin E nonapeptide] (X1-[Thr(3ξ)][Dab][Dab][Dab][dL]L[Dab][Dab][Thr(3ξ)]; lactam 3-C) | 8 | 16 | 8 | 4 |
| CC(C)C[C@@H]1NC(=O)[C@@H](Cc2ccccc2)NC(=O)[C@H](CCN)NC(=O)[C@@H](NC(=O)[C@H](CCN)NC(=O)[C@@H](NC(=O)CCC(C)(C)N)C(C)O)CCNC(=O)[C@H](C(C)O)NC(=O)[C@H](CCN)NC(=O)[C@H](CCN)NC1=O (stereo partly shown) [Example 28, 4-Amino-4-methyl pentanoyl polymyxin B nonapeptide] (X11-[Thr(3ξ)][Dab][Dab][Dab][dF]L[Dab][Dab][Thr(3ξ)]; lactam 3-C) | 0.25 | 4 | 4 | <0.06 |
| CCCCCC(O)CC(=O)N[C@H](C(=O)N[C@@H](CCN)C(=O)N[C@H]1CCNC(=O)[C@H](C(C)O)NC(=O)[C@H](CCN)NC(=O)[C@H](CCN)NC(=O)[C@H](CC(C)C)NC(=O)[C@@H](Cc2ccccc2)NC(=O)[C@H](CCN)NC1=O)C(C)O (stereo partly drawn) [Example 17, 3-(R,S)-3-Hydroxyoctanoyl polymyxin B nonapeptide] ({Octanoyl(3-OH)}-[Thr(3ξ)][Dab][Dab][Dab][dF]L[Dab][Dab][Thr(3ξ)]; lactam 3-C) | 8 | 4 | 8 | 2 |
| CC(C)C[C@@H]1NC(=O)[C@@H](Cc2ccccc2)NC(=O)[C@H](CCN)NC(=O)[C@@H](NC(=O)[C@H](CCN)NC(=O)[C@@H](NC(=O)CO)C(C)O)CCNC(=O)[C@H](C(C)O)NC(=O)[C@H](CCN)NC(=O)[C@H](CCN)NC1=O (stereo partly shown) [Example 16, Hydroxyacetyl polymyxin B nonapeptide] (Glycolyl-[Thr(3ξ)][Dab][Dab][Dab][dF]L[Dab][Dab][Thr(3ξ)]; lactam 3-C) | 8 | 32 | 32 | 0.25 |
| CC(C)C[C@@H]1NC(=O)[C@@H](CC(C)C)NC(=O)[C@H](CCN)NC(=O)[C@@H](NC(=O)[C@H](CCN)NC(=O)[C@@H](NC(=O)CCCN)C(C)O)CCNC(=O)[C@H](C(C)O)NC(=O)[C@H](CCN)NC(=O)[C@H](CCN)NC1=O (stereo partly drawn) [Example 25, 4-aminobutanoyl polymyxin E nonapeptide] (H-[GABA][Thr(3ξ)][Dab][Dab][Dab][dL]L[Dab][Dab][Thr(3ξ)]; lactam 4-C) | 4 | 16 | 8 | 4 |
| CC(C)C[C@@H]1NC(=O)[C@@H](Cc2ccccc2)NC(=O)[C@H](CCN)NC(=O)[C@@H](NC(=O)[C@H](CCN)NC(=O)[C@@H](NC(=O)[C@H](CCN)NC(=O)Nc2ccccc2Cl)[C@@H](C)O)CCNC(=O)[C@H]([C@@H](C)O)NC(=O)[C@H](CCN)NC(=O)[C@H](CCN)NC1=O [CB-182,804, reference compound] ({NH(2-ClPh)-CO}-[Dab]T[Dab][Dab][Dab][dF]L[Dab][Dab]T; lactam 4-C; N-terminus assumed) | – | 0.5 | 2 | 1 |

The next lines start with the values.

| MIC [1] [micrograms/mL] | MIC [2] [micrograms/mL] | MIC [3] [micrograms/mL] | MIC [4] [micrograms/mL] | Structure (SMILES) |
| --- | --- | --- | --- | --- |
| 1 | 8 | 16 | 0.125 | CC(C)C[C@@H]1NC(=O)[C@@H](Cc2ccccc2)NC(=O)[C@H](CCN)NC(=O)[C@@H](NC(=O)[C@H](CCN)NC(=O)[C@@H](NC(=O)CC[C@@H]2CCCN2)C(C)O)CCNC(=O)[C@H](C(C)O)NC(=O)[C@H](CCN)NC(=O)[C@H](CCN)NC1=O (stereo partly drawn) [Example 30, 3-(S)-(1-pyrrolidin-2-yl)-propionyl polymyxin B nonapeptide] (X10-[Thr(3ξ)][Dab][Dab][Dab][dF]L[Dab][Dab][Thr(3ξ)]; lactam 3-C) |
| 0.5 | 8 | >32 | 0.25 | CC(C)C[C@@H]1NC(=O)[C@@H](Cc2ccccc2)NC(=O)[C@H](CCN)NC(=O)[C@@H](NC(=O)[C@H](CCN)NC(=O)[C@@H](NC(=O)CC[C@H](C)N)C(C)O)CCNC(=O)[C@H](C(C)O)NC(=O)[C@H](CCN)NC(=O)[C@H](CCN)NC1=O (stereo partly drawn) [Example 31, 4-(S)-aminopentanoyl polymyxin B nonapeptide] ({GABA(4S-Me)}-[Thr(3ξ)][Dab][Dab][Dab][dF]L[Dab][Dab][Thr(3ξ)]; lactam 3-C) |
| 4 | 16 | 8 | 0.125 | CC(C)C[C@@H]1NC(=O)[C@@H](Cc2ccccc2)NC(=O)[C@H](CCN)NC(=O)[C@@H](NC(=O)[C@H](CCN)NC(=O)[C@@H](NC(=O)[C@H]2CC[C@H](O)CC2)C(C)O)CCNC(=O)[C@H](C(C)O)NC(=O)[C@H](CCN)NC(=O)[C@H](CCN)NC1=O (stereo partly drawn) [Example 32, trans-4-hydroxycyclohexanecarbonyl polymyxin B nonapeptide] (X8-[Thr(3ξ)][Dab][Dab][Dab][dF]L[Dab][Dab][Thr(3ξ)]; lactam 3-C) |
| 2 | 1 | 2 | 1 | CCCCCCCC(=O)N[C@H](C(=O)N[C@H](CO)C(=O)N[C@H]1CCNC(=O)[C@H]([C@@H](C)O)NC(=O)[C@H](CCN)NC(=O)[C@H](CCN)NC(=O)[C@H](CC(C)C)NC(=O)[C@@H](Cc2ccccc2)NC(=O)[C@H](CCN)NC1=O)[C@@H](C)O [NAB739, reference compound] (Octanoyl-T[dS][Dab][Dab][dF]L[Dab][Dab]T; lactam 3-C; N-terminus assumed) |
| 1 | 2 | – | 0.25 | CCCCCCC(N)C(=O)N[C@H](C(=O)N[C@@H](CCN)C(=O)N[C@H]1CCNC(=O)[C@H](C(C)O)NC(=O)[C@H](CCN)NC(=O)[C@H](CCN)NC(=O)[C@H](CC(C)C)NC(=O)[C@@H](Cc2ccccc2)NC(=O)[C@H](CCN)NC1=O)C(C)O (stereo partly drawn) [Example 35, 2-(R,S)-2-Amino octanoyl polymyxin B nonapeptide] (H-[ξAoc(2)][Thr(3ξ)][Dab][Dab][Dab][dF]L[Dab][Dab][Thr(3ξ)]; lactam 4-C) |

Source: patent publication US9234006B2, “Compounds” (Novacta Biosystems Limited, priority 2011, dated 2016)
